Assay results reported in patent US12240844B2 (Voronoi, Inc., priority 2019, dated 2025).

Experiments:
Assay type in all cases: biochemical
[1] = biological target: T1, human GST-CLK1 (129-end) (Homo sapiens, UniProt P49759); assay: GST-CLK1 enzyme inhibition, ADP-Glo kinase assay; conditions: ATP 10 uM
T1 construct: purified human GST-CLK1 (129-end, Signalchem) enzyme; GST; purchased Signalchem
Summary of the method: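 GST-CLK1 (129-end, 3 ng) reacted with 10 uM ATP and substrate in 40 mM Tris-HCl pH 7.4, 20 mM MgCl2, 0.5 mg/mL BSA, 50 uM DTT, 1 h at 25° C. ADP-Glo luminescence normalised to solvent control; IC50 from triplicate data.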

[2] = biological target: T2, human GST-DYRK1A (full length) (Homo sapiens, UniProt Q13627); assay: GST-DYRK1A enzyme inhibition, ADP-Glo kinase assay; conditions: read-out: DYRK1 IC50
T2 construct: purified human GST-DYRK1A (full length, Thermo scientifics) enzyme; GST; purchased Thermo scientifics
Summary of the method: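 Full-length human GST-DYRK1A (10 ng) incubated with 10 uM ATP and specific substrate for 1 h at 25° C in 40 mM Tris-HCl pH 7.4, 20 mM MgCl2, 0.5 mg/mL BSA, 50 uM DTT. ADP formation read by ADP-Glo luminescence; IC50 (nM) versus solvent control, triplicate.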

[3] = biological target: LRRK2 (G2019S) (Homo sapiens, UniProt Q5S007, G2019S); assay: LRRK2 G2019S enzyme inhibition, ADP-Glo kinase assay; set-up: purchased SignalChem L10-12GG
Chain of LRRK2 (G2019S) (Q5S007 970-2527 G2019S limits assumed): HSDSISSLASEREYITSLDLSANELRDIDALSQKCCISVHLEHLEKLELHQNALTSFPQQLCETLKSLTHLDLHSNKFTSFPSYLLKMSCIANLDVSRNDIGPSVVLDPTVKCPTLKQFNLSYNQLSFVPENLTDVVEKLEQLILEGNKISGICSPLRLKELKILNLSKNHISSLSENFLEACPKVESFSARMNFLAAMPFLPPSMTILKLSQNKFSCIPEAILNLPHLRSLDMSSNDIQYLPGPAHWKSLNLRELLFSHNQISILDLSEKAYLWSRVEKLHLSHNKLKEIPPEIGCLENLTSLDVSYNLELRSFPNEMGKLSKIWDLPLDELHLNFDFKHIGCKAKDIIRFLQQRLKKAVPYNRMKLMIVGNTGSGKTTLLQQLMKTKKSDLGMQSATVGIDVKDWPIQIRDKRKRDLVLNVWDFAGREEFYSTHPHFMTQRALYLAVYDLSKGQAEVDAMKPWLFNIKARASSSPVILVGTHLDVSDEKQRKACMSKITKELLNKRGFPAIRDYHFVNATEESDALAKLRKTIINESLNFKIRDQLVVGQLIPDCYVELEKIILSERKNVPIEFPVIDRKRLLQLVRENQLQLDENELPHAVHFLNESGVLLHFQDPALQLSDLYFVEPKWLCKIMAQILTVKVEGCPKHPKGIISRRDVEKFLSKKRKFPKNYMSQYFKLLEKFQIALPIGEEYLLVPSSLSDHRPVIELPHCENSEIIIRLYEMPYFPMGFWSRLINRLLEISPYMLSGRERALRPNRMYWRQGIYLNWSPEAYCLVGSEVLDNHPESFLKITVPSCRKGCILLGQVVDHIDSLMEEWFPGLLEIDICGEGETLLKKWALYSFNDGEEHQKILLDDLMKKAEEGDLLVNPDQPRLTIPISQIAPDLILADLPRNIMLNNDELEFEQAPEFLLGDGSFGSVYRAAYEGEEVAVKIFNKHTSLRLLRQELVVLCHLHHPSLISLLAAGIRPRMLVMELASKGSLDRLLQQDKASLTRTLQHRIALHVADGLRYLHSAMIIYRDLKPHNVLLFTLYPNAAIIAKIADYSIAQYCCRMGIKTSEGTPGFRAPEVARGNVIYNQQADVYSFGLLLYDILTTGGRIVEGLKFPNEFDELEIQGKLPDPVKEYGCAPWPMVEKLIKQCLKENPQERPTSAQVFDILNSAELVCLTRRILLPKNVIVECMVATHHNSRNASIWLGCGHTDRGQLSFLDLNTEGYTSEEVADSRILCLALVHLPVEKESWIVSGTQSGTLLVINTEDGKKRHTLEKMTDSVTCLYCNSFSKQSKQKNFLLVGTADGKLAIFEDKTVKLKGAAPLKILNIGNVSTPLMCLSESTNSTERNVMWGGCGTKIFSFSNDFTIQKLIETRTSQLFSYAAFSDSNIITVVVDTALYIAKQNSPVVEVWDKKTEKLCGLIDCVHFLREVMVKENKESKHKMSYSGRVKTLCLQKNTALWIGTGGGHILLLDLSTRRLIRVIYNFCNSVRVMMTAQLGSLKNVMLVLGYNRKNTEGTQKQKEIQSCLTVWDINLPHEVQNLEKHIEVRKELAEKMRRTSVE
Description: In order to evaluate the inhibitory activity of the compounds according to the present invention on LRRK2, LRRK2 (G2019S), DYRK1, CLK1 and TTK kinases, the following experiment was performed.
Example compounds were reacted with the purified human LRRK2 G2019S (L10-12GG, SignalChem) enzyme to evaluate the enzyme inhibitory ability as follows. The reaction buffer was used as the composition of 40 mM Tris-HCl pH7.4, 20 mM MgCl2, 0.5 mg/ml BSA and 50 μM DTT, and the reaction of all test materials was performed on the reaction buffer. The compound was diluted with 10 mM DMSO stock in 12 steps by a serial dilution method, and the enzyme activity was measured at the final compound concentrations of 50, 10, 2, 0.4, 0.08, 0.016, 0.0032, 0.00064, 0.000128, 0.0000256, 0.00000512 and 0.000001024 μM. In the test, the human LRRK2 G2019S (16 ng) enzyme was reacted with the purified ATP (25 μM) and an enzyme substrate (0.2 μg) at 25° C. for 2 hours, and then the enzyme activity was identified using the in vitro ADP-Glo™ kinase assay (promega). The enzyme activity reaction liquid, an ADP-Glo reaction liquid and an enzyme potency detection solution were reacted in a ratio of 2:2:1, and the degree of inhibition of enzyme activity was measured by Luminescence. The degree of inhibition of enzyme activity according to the treatment concentrations of the respective compounds was calculated based on the fluorescence of the enzyme activity of a solvent control group that was not treated with the compound, where the concentration of each compound to inhibit enzyme activity inhibition by 50% was determined as an IC50 (nM) value and obtained using Prism (Version 5.01, GraphPad) software.
In the table below, the following designations were used for the evaluation of enzyme inhibitory ability.

T1 sequence (P49759 129-484 limits assumed): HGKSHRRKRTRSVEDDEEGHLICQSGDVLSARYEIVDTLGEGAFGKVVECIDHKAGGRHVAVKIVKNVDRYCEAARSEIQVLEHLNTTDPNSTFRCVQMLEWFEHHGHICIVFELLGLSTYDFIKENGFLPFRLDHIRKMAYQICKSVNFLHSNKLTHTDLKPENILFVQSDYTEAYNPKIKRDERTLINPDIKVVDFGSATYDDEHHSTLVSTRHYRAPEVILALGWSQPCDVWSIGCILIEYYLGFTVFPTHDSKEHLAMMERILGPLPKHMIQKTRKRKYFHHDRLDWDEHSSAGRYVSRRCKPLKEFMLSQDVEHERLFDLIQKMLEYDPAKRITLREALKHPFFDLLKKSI

IC50 [1] | IC50 [2] | IC50 [3] | Structure (SMILES)
< 0.1 µM | < 0.1 µM | < 0.1 µM | CCNc1cc(Nc2ccc(C(=O)N3CCO[C@@H](C)C3)c3c2OCC3)nc2[nH]cc(C(F)(F)F)c12 [Example 259, (S)-(7-((4-(ethylamino)-3-(trifluoromethyl)-1H-pyrrolo[2,3-b]pyridin-6-yl)amino)-2,3-dihydrobenzofuran-4-yl)(2-methylmorpholino) methanone]
0.301 to 1 µM | 0.301 to 1 µM | 0.301 to 1 µM | COc1cc(S(C)(=O)=O)ccc1Nc1cc(NC2CC2)c2cc[nH]c2n1 [Example 1, N^4-cyclopropyl-N^6-(2-methoxy-4-(methylsulfonyl)phenyl)-1H-pyrrolo[2,3-b]pyridine-4,6-diamine]
0.301 to 1 µM | 0.301 to 1 µM | 0.301 to 1 µM | CCNc1cc(Nc2ccc(C(=O)N3OCC[C@H]3c3cc(F)cc(F)c3)c3c2OCC3)nc2[nH]cc(C(F)(F)F)c12 [Example 246, (S)-(3-(3,5-difluorophenyl)isoxazolidin-2-yl)(7-((4-(ethylamino)-3-(trifluoromethyl)-1H-pyrrolo[2,3-b]pyridin-6-yl)amino)-2,3-dihydrobenzofuran-4-yl)methanone]
0.301 to 1 µM | 0.301 to 1 µM | 0.301 to 1 µM | COc1cc(S(C)(=O)=O)ccc1Nc1cc(NC(C)C)c2c(Cl)c[nH]c2n1 [Example 83, 3-chloro-N^4-isopropyl-N^6-(2-methoxy-4-(methylsulfonyl)phenyl)-1H-pyrrolo[2,3-b]pyridine-4,6-diamine]
0.301 to 1 µM | 0.301 to 1 µM | 0.301 to 1 µM | COc1cc(S(C)(=O)=O)ccc1Nc1cc(NC2CCCCC2)c2cc[nH]c2n1 [Example 30, N^4-cyclohexyl-N^6-(2-methoxy-4-(methylsulfonyl)phenyl)-1H-pyrrolo[2,3-b]pyridine-4,6-diamine]
0.301 to 1 µM | 0.301 to 1 µM | < 0.1 µM | COc1cc(S(=O)(=O)N2CCC(N3CCOCC3)CC2)ccc1Nc1cc(NC(C)C)c2c(Cl)c[nH]c2n1 [Example 75, 3-chloro-N^4-isopropyl-N^6-(2-methoxy-4-((morpholinopiperidin-1-yl)sulfonyl)phenyl)-1H-pyrrolo[2,3-b]pyridine-4,6-diamine]
0.301 to 1 µM | 0.301 to 1 µM | 0.301 to 1 µM | CC(C)Nc1cc(Nc2ccc(C(=O)N3CCOCC3)c3c2OCCO3)nc2[nH]cc(Cl)c12 [Example 59, (8-((3-chloro-4-(isopropylamino)-1H-pyrrolo[2,3-b]pyridin-6-yl)amino)-2,3-dihydrobenzo [b] [1,4]dioxin-5-yl)(morpholino) methanone]
0.301 to 1 µM | 0.301 to 1 µM | < 0.1 µM | CCCNc1cc(Nc2ccc(S(=O)(=O)N3CCOCC3)cc2OC)nc2[nH]ccc12 [Example 12, N^6-(2-methoxy-4-(morpholinosulfonyl)phenyl)-N^4-propyl-1H-pyrrolo[2,3-b]pyridine-4,6-diamine 2,2,2-trifluoroacetate]
0.301 to 1 µM | 0.301 to 1 µM | < 0.1 µM | CC(C)Nc1cc(Nc2ccc(C(=O)N3CCOCC3)c3c2OCCO3)nc2[nH]ccc12 [Example 5, (8-((4-(isopropylamino)-1H-pyrrolo[2,3-b]pyridin-6-yl)amino)-2,3-dihydrobenzo[b] [1,4]dioxin-5-yl)(morpholino) methanone]
0.301 to 1 µM | 0.301 to 1 µM | 0.301 to 1 µM | CCNc1cc(Nc2ccc(C(=O)N3OCC[C@@H]3c3cc(F)cc(F)c3)c3c2OCC3)nc2[nH]cc(C(F)(F)F)c12 [Example 245, (R)-(3-(3,5-difluorophenyl)isoxazolidin-2-yl)(7-((4-(ethylamino)-3-(trifluoromethyl)-1H-pyrrolo[2,3-b]pyridin-6-yl)amino)-2,3-dihydrobenzofuran-4-yl)methanone]
0.301 to 1 µM | 0.301 to 1 µM | < 0.1 µM | CS(=O)(=O)CCNc1cc(Nc2ccc(C(=O)N3CCOCC3)c3c2OCCO3)nc2[nH]ccc12 [Example 9, (8-((4-((2-(methylsulfonyl)ethyl)amino)-1H-pyrrolo[2,3-b]pyridin-6-yl)amino)-2,3-dihydrobenzo[b] [1,4]dioxin-5-yl)(morpholino) methanone]
0.301 to 1 µM | 0.301 to 1 µM | 0.101 to 0.3 µM | O=C(c1ccc(Nc2cc(NC3CCCCC3)c3cc[nH]c3n2)c2c1OCCO2)N1CCOCC1 [Example 8, (8-((4-(cyclohexylamino)-1H-pyrrolo[2,3-b]pyridin-6-yl)amino)-2,3-dihydrobenzo[b] [1,4]dioxin-5-yl)(morpholino) methanone]
0.301 to 1 µM | 0.301 to 1 µM | < 0.1 µM | COc1cc(S(=O)(=O)N2CCC(N3CCOCC3)CC2)ccc1Nc1cc(NCCS(C)(=O)=O)c2cc[nH]c2n1 [Example 24, N^6-(2-methoxy-4-((4-morpholinopiperidin-1-yl)sulfonyl)phenyl)-N^4-(2-(methylsulfonyl)ethyl)-1H-pyrrolo[2,3-b]pyridine-4,6-diamine]
0.301 to 1 µM | 0.301 to 1 µM | 0.301 to 1 µM | COc1cc(S(C)(=O)=O)ccc1Nc1cc(NCCS(C)(=O)=O)c2c(Cl)c[nH]c2n1 [Example 88, 3-chloro-N^6-(2-methoxy-4-(methylsulfonyl)phenyl)-N^4-(2-(methylsulfonyl)ethyl)-1H-pyrrolo[2,3-b]pyridine-4,6-diamine]
0.301 to 1 µM | 0.301 to 1 µM | 0.301 to 1 µM | COc1cc(S(=O)(=O)N2CCOCC2)ccc1Nc1cc(NCCS(C)(=O)=O)c2c(Cl)c[nH]c2n1 [Example 72, 3-chloro-N^6-(2-methoxy-4-(morpholinosulfonyl)phenyl)-N^4-(2-(methylsulfonyl)ethyl)-1H-pyrrolo[2,3-b]pyridine-4,6-diamine]
0.301 to 1 µM | 0.301 to 1 µM | 0.301 to 1 µM | COc1cc(S(=O)(=O)N2CCOCC2)ccc1Nc1cc(NC2CCCCC2)c2cc[nH]c2n1 [Example 16, N^4-cyclohexyl-N^6-(2-methoxy-4-(morpholinosulfonyl)phenyl)-1H-pyrrolo[2,3-b]pyridine-4,6-diamine]
0.301 to 1 µM | 0.301 to 1 µM | 0.301 to 1 µM | COc1cc(S(=O)(=O)N2CCC(N3CCOCC3)CC2)ccc1Nc1cc(NC2CCCCC2)c2cc[nH]c2n1 [Example 23, N^4-cyclohexyl-N^6-(2-methoxy-4-((4-morpholinopiperidin-1-yl)sulfonyl)phenyl)-1H-pyrrolo[2,3-b]pyridine-4,6-diamine]
0.301 to 1 µM | 0.301 to 1 µM | 0.301 to 1 µM | CCNc1cc(Nc2ccc(S(C)(=O)=O)cc2OC)nc2[nH]cc(Cl)c12 [Example 81, 3-chloro-N^4-ethyl-N^6-(2-methoxy-4-(methylsulfonyl)phenyl)-1H-pyrrolo[2,3-b]pyridine-4,6-diamine]
0.301 to 1 µM | 0.301 to 1 µM | < 0.1 µM | O=C(c1ccc(Nc2cc(NC3CC3)c3cc[nH]c3n2)c2c1OCCO2)N1CCOCC1 [Example 7, (8-((4-(cyclopropylamino)-1H-pyrrolo[2,3-b]pyridin-6-yl)amino)-2,3-dihydrobenzo [b] [1,4]dioxin-5-yl)(morpholino) methanone]
0.301 to 1 µM | 0.301 to 1 µM | < 0.1 µM | CNc1cc(Nc2ccc(C(=O)N3CCOCC3)c3c2OCCO3)nc2[nH]ccc12 [Example 2, (8-((4-(Methylamino)-1H-pyrrolo[2,3-b]pyridine-6-yl)amino)-2,3-dihydrobenzo[b] [1,4]dioxin-5-yl)(morpholino) methanone]
0.301 to 1 µM | 0.301 to 1 µM | < 0.1 µM | CCCNc1cc(Nc2ccc(C(=O)N3CCOCC3)c3c2OCCO3)nc2[nH]cc(Cl)c12 [Example 58, (8-((3-chloro-4-(propylamino)-1H-pyrrolo[2,3-b]pyridin-6-yl)amino)-2,3-dihydrobenzo[b] [1,4]dioxin-5-yl)(morpholino) methanone]
0.301 to 1 µM | 0.301 to 1 µM | < 0.1 µM | CCCNc1cc(Nc2ccc(C(=O)N3CCOCC3)c3c2OCCO3)nc2[nH]ccc12 [Example 4, morpholino(8-((4-(propylamino)-1H-pyrrolo[2,3-b]pyridin-6-yl)amino)-2,3-dihydrobenzo [b] [1,4]dioxin-5-yl)(morpholino) methanone 2,2,2-trifluoroacetate]
